We go through 17 compounds from ChEMBL document CHEMBL3991601, “The target landscape of clinical kinase drugs” (Science, 2017).

Molecules are shown by their SMILES. The source made the active and inactive calls.

The target in assay [1] is T1, Interleukin-1 receptor-associated kinase 3 (Homo sapiens, UniProt Q9Y616).
T1 sequence (Q9Y616 whole entry): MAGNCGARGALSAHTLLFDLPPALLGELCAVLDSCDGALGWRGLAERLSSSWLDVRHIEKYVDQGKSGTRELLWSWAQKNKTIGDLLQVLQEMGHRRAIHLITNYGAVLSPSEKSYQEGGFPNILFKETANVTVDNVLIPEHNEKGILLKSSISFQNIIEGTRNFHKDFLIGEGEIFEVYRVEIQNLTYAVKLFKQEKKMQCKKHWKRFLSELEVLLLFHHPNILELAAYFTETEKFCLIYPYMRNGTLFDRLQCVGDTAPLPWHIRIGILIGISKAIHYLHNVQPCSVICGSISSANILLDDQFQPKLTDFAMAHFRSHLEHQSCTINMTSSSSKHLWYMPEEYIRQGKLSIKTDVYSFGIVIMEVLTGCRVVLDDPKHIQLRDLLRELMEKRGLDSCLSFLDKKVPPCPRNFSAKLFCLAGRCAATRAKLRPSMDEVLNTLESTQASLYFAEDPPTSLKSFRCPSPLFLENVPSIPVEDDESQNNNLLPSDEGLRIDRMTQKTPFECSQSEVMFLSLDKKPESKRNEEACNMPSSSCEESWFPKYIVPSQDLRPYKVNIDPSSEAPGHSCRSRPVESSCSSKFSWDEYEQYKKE

The target in assay [2] is 26S proteasome regulatory subunit 6B (Homo sapiens, UniProt P43686).
Sequence of 26S proteasome regulatory subunit 6B (P43686 whole entry): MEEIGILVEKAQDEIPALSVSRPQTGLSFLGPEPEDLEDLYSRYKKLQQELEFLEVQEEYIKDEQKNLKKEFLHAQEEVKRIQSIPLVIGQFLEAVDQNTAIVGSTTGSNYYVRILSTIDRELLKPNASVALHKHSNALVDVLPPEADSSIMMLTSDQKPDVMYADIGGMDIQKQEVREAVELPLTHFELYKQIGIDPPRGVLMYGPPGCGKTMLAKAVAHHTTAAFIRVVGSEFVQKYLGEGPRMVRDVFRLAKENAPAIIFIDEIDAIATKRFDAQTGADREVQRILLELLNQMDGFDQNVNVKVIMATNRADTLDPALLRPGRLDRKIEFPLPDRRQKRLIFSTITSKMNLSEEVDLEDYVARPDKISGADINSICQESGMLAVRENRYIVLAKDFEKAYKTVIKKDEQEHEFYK
The target of assay [3] is T2, Ras-related protein Rab-10 (Homo sapiens, UniProt P61026).
T2 sequence (P61026 whole entry): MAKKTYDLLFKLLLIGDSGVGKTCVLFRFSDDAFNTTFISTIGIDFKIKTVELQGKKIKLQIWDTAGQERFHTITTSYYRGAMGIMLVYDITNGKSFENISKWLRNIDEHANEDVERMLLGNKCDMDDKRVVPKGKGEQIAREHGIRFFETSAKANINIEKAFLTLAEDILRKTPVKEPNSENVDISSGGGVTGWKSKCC

Assay [4] addresses Casein kinase I isoform delta (Homo sapiens, UniProt P48730).
The target in assay [5] is T3, RNA cytidine acetyltransferase (Homo sapiens, UniProt Q9H0A0).
T3 sequence (Q9H0A0 whole entry): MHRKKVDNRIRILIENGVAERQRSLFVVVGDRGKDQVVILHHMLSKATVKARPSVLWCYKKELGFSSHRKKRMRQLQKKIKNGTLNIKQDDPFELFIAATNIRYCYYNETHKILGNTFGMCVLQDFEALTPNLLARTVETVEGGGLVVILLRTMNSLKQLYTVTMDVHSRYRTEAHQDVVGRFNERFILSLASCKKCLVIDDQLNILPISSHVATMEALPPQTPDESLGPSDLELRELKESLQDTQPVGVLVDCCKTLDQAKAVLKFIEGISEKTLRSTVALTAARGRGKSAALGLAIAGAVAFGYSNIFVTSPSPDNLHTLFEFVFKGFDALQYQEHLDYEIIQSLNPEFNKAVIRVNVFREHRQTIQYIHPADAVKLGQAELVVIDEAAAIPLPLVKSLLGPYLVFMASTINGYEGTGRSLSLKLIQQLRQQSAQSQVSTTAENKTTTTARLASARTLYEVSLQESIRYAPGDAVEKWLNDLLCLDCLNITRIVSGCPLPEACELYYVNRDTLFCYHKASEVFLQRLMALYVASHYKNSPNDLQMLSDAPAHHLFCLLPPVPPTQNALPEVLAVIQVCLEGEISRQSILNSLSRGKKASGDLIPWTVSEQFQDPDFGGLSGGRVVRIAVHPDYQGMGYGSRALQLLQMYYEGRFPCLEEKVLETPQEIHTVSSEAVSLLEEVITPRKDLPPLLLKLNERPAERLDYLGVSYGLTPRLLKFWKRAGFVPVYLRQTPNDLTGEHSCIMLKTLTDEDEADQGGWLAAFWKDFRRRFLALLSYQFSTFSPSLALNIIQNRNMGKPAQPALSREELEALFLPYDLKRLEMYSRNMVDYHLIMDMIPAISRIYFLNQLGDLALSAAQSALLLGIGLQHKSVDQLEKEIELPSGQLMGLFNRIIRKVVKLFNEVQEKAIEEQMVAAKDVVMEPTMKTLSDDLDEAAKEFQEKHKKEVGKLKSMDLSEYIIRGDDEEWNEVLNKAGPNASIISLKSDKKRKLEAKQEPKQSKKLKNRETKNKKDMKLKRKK

Assay [6] addresses T4, DNA replication licensing factor MCM4 (Homo sapiens, UniProt P33991).
T4 sequence (P33991 whole entry): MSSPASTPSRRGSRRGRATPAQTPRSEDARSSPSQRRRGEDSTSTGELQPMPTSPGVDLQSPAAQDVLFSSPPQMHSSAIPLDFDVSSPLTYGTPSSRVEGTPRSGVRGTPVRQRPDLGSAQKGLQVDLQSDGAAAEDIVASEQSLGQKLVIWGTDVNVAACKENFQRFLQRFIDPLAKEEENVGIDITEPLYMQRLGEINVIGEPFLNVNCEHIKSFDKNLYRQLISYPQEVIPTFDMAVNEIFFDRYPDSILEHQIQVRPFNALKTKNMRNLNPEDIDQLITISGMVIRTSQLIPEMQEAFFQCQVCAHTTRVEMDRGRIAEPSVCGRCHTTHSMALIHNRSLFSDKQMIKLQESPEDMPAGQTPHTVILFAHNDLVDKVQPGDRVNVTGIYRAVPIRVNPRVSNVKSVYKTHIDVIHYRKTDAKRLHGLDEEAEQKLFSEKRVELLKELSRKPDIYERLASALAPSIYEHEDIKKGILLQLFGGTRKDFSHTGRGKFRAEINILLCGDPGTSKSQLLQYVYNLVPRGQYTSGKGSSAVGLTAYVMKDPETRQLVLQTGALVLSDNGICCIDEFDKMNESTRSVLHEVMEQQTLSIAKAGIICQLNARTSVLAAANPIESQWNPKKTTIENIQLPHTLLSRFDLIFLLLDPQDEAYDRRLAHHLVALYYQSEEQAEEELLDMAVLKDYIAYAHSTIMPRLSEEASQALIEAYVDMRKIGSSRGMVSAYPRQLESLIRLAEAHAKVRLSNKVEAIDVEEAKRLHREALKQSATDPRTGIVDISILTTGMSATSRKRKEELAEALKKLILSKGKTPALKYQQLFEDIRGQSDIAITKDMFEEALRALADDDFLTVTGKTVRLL

Assay [7] addresses Tyrosine-protein kinase Lck (Homo sapiens, UniProt P06239).
Further: in the data inactive means no Kd found up to 30 µM.

Sequence of Casein kinase I isoform delta (P48730 whole entry, canonical isoform): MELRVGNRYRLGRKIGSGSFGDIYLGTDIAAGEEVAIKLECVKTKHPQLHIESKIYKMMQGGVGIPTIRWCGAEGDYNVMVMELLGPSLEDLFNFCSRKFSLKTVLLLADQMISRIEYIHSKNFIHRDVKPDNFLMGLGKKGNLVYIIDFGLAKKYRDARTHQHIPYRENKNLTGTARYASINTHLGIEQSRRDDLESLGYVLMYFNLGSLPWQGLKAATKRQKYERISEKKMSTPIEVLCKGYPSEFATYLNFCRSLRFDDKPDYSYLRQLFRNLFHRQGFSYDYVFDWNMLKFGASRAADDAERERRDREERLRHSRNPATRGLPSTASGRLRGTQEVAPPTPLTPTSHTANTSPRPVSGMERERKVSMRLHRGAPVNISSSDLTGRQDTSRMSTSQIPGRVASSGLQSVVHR
Sequence of Tyrosine-protein kinase Lck (P06239 whole entry): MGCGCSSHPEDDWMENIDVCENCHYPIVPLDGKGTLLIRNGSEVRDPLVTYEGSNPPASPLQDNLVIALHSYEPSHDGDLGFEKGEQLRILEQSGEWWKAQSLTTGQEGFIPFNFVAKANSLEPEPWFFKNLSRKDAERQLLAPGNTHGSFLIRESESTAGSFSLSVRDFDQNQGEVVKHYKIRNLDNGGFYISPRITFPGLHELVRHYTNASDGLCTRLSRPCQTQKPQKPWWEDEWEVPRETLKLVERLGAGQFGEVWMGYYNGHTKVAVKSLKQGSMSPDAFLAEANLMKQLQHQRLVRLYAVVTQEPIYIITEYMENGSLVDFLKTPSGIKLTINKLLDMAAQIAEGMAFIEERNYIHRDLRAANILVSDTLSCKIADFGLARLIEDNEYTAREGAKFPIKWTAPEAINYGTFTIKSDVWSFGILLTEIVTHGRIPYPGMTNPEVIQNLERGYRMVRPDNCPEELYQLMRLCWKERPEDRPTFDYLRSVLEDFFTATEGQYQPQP

For orientation: Kd means the equilibrium constant for the complex coming apart. As for `C[C@@H](Nc1cc(F)cc(F)c1)c1cc(C(=O)N(C)C)cc2c(=O)cc(N3CCOCC3)oc12` [AZD-8186], the Kd in assay [1], in assay [2], in assay [3], in assay [4], in assay [5] and in assay [6] was > 30 µM (inactive) in each case. For the same compound, in assay [7], the Kd is > 30 µM (inactive).

`COc1cc(OC)c(/C=C/S(=O)(=O)Cc2ccc(OC)c(NCC(=O)O)c2)c(OC)c1` [RIGOSERTIB]: the Kd in assay [1], in assay [2], in assay [3], in assay [4], in assay [5] and in assay [7] was > 30 µM (inactive) each time.

Consider `Cc1nc(N)sc1-c1ccnc(Nc2ccc(N3CCOCC3)cc2)n1` [CYC-116], for which the Kd in assay [1] was 0.057 µM (active); in assay [2], > 30 µM (inactive); in assay [3] it was > 30 µM (inactive); in assay [5] it was > 30 µM (inactive); in assay [6], > 30 µM (inactive).

As for `Cc1cc(Nc2cc(N3CCN(C)CC3)nc(/C=C/c3ccccc3)n2)n[nH]1` [ENMD-2076], the Kd in assay [1], in assay [2], in assay [3], in assay [5] and in assay [6] was > 30 µM (inactive) each time.

As for `Cc1ccc(NC(=O)c2ccc(CN3CC[C@H](N(C)C)C3)c(C(F)(F)F)c2)cc1Nc1nccc(-c2cncnc2)n1` [BAFETINIB], the Kd in assay [1], in assay [2], in assay [3], in assay [4], in assay [5] and in assay [6] was > 30 µM (inactive) each time.

In the case of `O=C(Nc1cccc(Cl)c1)Nc1ncc(CCNc2ncnc3ccsc23)s1` [SNS-314], the Kd in assay [1], in assay [2], in assay [3], in assay [5] and in assay [6] was > 30 µM (inactive) each time.

Take `Nc1nc(N)c2nc(-c3cccc(O)c3)c(-c3cccc(O)c3)nc2n1` [TG100-115]: the Kd in assay [2], in assay [3], in assay [4], in assay [5] and in assay [6] was > 30 µM (inactive) throughout.

On to `CN1CCN(c2ccc3nc(-c4c(N)c5c(F)cccc5[nH]c4=O)[nH]c3c2)CC1` [DOVITINIB], for which the Kd in assay [2], in assay [3], in assay [5] and in assay [6] was > 30 µM (inactive) in each case.

For `C1=C/COCc2cc(ccc2OCCN2CCCC2)Nc2nccc(n2)-c2cccc(c2)COC/1` [PACRITINIB], the Kd in assay [1] was 0.035 µM (active); in assay [2], > 30 µM (inactive); in assay [3], > 30 µM (inactive); in assay [4] it was > 30 µM (inactive); in assay [5] it was > 30 µM (inactive); in assay [7] it was 6.54 µM (active).

Take `CCc1cnn2c(NCc3ccc[n+]([O-])c3)cc(N3CCCC[C@H]3CCO)nc12` [DINACICLIB]: the Kd in assay [1], in assay [2], in assay [3], in assay [4], in assay [5] and in assay [6] was > 30 µM (inactive) throughout.

Take `OCCn1cc(-c2cnc3nnn(Cc4ccc5ncccc5c4)c3n2)cn1` [PF-04217903]: the Kd in assay [1], in assay [2], in assay [3], in assay [4], in assay [5] and in assay [6] was > 30 µM (inactive) in each case.

Turning to `Cn1cc(-c2ccc3nnc(C(F)(F)c4ccc5ncccc5c4)n3n2)cn1` [JNJ-38877605], the Kd in assay [1], in assay [2], in assay [3], in assay [4], in assay [5] and in assay [7] was > 30 µM (inactive) each time.

As to `CNC(=O)c1ccc(-c2cnc3ncc(Cc4ccc5ncccc5c4)n3n2)cc1F` [CAPMATINIB], the Kd in assay [1], in assay [2], in assay [4], in assay [5], in assay [6] and in assay [7] was > 30 µM (inactive) each time.

On to `CCn1c(-c2nonc2N)nc2c(C#CC(C)(C)O)ncc(OC[C@H]3CCCNC3)c21` [GSK-690693], for which the Kd in assay [2], in assay [3], in assay [5] and in assay [6] was > 30 µM (inactive) throughout.

On to `COc1cc2nccc(Oc3ccc(NC(=O)NC4CC4)c(Cl)c3)c2cc1C(N)=O` [LENVATINIB], for which the Kd in assay [1], in assay [2], in assay [3], in assay [5], in assay [6] and in assay [7] was > 30 µM (inactive) each time.

As for `Cn1cc(-c2ccc(F)c(C(F)(F)F)c2)nc1C1CCN(c2ncnc3[nH]ncc23)CC1` [LY-2584702], the Kd in assay [1], in assay [2], in assay [3], in assay [4], in assay [5] and in assay [7] was > 30 µM (inactive) each time.

Take `Cc1cn(-c2cc(NC(=O)c3ccc(C)c(Nc4nccc(-c5cccnc5)n4)c3)cc(C(F)(F)F)c2)cn1` [NILOTINIB]: the Kd in assay [2], in assay [3], in assay [5] and in assay [6] was > 30 µM (inactive) each time.
